Experimental findings from patent US9987276B2 (Celgene CAR LLC, priority 2008, dated 2018) are described below.

The target in experiment [1] is T1, BTK (Homo sapiens (Human), UniProt Q06187). In words: Washout experiment with Ramos cells. It is filed as cell-based. Conditions: 100 nM compound for 1 hour, then washout. The procedure: Ramos cells were serum starved for one hour in RPMI media+1% glutamine at 37° C. After starvation, Ramos cells were treated with 100 nM compound diluted in serum free RPMI media for 1 hour. After compound treatment, the media was removed and cells were washed with compound-free media. Subsequently, Ramos cells were washed every 2 hours and resuspended in fresh compound-free media. Cells were collected at specified timepoints, treated with 1 ug anti-human IgM (Southern Biotech cat #2022-01) for 10 minutes on ice to induce BCR signaling and then washed in PBS. Ramos cells were then lysed in Cell Extraction Buffer (Invitrogen FNN0011) supplemented with Roche complete protease inhibitor tablets (Roche 11697498001) and phosphatase inhibitors (Roche 04 906 837 001) and 18 ug total protein lysate was loaded in each lane. Inhibition of BTK kinase activity was assayed by measuring its substrate (PLCγ2) phosphorylation by western blot with phospho-specific antibodies from Cell Signaling Technologies cat #3871. The results of this experiment with compounds I-2, I-4 and I-7 are depicted in FIGS. 1, 2 and 3.

Experiment [2] deals with T1, BTK. The experiment in a line: Omnia assay for potency assessment against BTK. As to conditions: [BTK]=5 nM, Omnia assay; read-out: BTK Inhibition (IC50). Format: biochemical. The protocol:
The modified BTK-optimized reagent conditions for the above protocol are:
[BTK]=5 nM, [ATP]=[…], [Y5-Sox]=[…] (ATP KMapp˜[…]).

The next experiment deals with ITK (Homo sapiens (Human), UniProt Q08881). In words: Omnia assay for potency assessment against active forms of ITK kinase. As to conditions: [ITK]=10 nM, [ATP]=25, [Y6-Sox]=10 μM; read-out: ITK Inhibition. It is filed as biochemical. The procedure: [ITK]=10 nM, [ATP]=25 [Y6-Sox]=10 μM (ATP KMapp=33 μM).
In the next experiment the target is EGFR-WT (Homo sapiens (Human), UniProt P00533). In words: Omnia assay for potency assessment against EGFR (WT).
Experiment [3] concerns the target T1, BTK. In words: BTK Ramos cellular assay (PLCγ2 phosphorylation). Format: cell-based. As to conditions: Ramos cells, 1 hour compound, anti-IgM stimulation, p-PLCγ2; read-out: BTK Inhibition (IC50), BTK Ramos cellular inhibition.
The target of a further experiment is BMX (Homo sapiens (Human), UniProt P51813). The experiment in a line: Omnia assay for potency assessment against active forms of BMX kinase. It is filed as biochemical. As to conditions: [BMX]=2.5 nM, [ATP]=100 μM, [Y5-Sox]=7.5 μM; read-out: BMX Inhibition. The protocol: Briefly, 10× stocks of EGFR-WT (PV3872) from Invitrogen and EGFR-T790M/L858R (40350) from BPS Bioscience, San Diego, Calif., 1.13×ATP (AS001A) and appropriate Tyr-Sox conjugated peptide substrates (KCZ1001) were prepared in 1× kinase reaction buffer consisting of 20 mM Tris, pH 7.5, 5 mM MgCl2, 1 mM EGTA, 5 mM β-glycerophosphate, 5% glycerol (10× stock, KB002A) and 0.2 mM DTT (DS001A).
This example describes continuous-read kinase assays to measure inherent potency of compound against active forms of BMX enzymes as described in Example 251 above except that the modified BMX-optimized reagent conditions are:
[BMX]=2.5 nM, [ATP]=100 μM, [Y5-Sox]=7.5 μM (ATP KMapp=107 μM).

For another experiment, the target named is EGFR-T790M/L858R (Homo sapiens (Human), UniProt P00533, L858R/T790M). In words: Omnia assay for potency assessment against EGFR (T790M/L858R). Conditions: read-out: EGFR (T790M/L858R); EGFR mutant T790M/L858R.
Experiment [4] deals with T1, BTK. In words: Mass spectrometry for BTK (intact protein). It is filed as binding. As to conditions: 1 hr, 10× fold excess of compound. The procedure:
Intact BTK was incubated for 1 hr at a 10× fold excess of I-7 to protein. Aliquots (2 μl) of the samples were diluted with 10 μl of 0.1% TFA prior to micro C4 ZipTipping directly onto the MALDI target using Sinapinic acid as the desorption matrix (10 mg/ml in 0.1% TFA:Acetonitrile 20:80).

Setting [5] is: read-out: EGFR (wild type inhibition), EGFR wild type.

Read-outs that look alike come from different tables or passages of the source.

ITK, sequence (Q08881 whole entry): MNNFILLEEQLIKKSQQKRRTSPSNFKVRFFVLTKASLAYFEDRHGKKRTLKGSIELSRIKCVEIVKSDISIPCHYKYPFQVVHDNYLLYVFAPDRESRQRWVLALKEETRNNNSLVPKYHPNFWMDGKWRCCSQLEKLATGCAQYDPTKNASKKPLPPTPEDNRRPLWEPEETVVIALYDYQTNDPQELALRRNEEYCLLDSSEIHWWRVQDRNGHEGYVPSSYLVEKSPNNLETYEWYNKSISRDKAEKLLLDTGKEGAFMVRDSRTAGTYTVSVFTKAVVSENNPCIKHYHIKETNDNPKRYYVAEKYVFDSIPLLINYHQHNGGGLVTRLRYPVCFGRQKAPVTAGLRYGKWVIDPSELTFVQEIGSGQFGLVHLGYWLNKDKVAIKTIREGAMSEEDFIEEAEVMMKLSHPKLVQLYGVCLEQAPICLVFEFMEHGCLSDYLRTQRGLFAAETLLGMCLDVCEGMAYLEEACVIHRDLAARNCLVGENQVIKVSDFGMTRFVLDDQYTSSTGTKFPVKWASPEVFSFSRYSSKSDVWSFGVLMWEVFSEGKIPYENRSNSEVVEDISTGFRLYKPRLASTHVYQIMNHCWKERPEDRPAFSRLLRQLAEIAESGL
EGFR-T790M/L858R, sequence (P00533 25-1210 T790M/L858R): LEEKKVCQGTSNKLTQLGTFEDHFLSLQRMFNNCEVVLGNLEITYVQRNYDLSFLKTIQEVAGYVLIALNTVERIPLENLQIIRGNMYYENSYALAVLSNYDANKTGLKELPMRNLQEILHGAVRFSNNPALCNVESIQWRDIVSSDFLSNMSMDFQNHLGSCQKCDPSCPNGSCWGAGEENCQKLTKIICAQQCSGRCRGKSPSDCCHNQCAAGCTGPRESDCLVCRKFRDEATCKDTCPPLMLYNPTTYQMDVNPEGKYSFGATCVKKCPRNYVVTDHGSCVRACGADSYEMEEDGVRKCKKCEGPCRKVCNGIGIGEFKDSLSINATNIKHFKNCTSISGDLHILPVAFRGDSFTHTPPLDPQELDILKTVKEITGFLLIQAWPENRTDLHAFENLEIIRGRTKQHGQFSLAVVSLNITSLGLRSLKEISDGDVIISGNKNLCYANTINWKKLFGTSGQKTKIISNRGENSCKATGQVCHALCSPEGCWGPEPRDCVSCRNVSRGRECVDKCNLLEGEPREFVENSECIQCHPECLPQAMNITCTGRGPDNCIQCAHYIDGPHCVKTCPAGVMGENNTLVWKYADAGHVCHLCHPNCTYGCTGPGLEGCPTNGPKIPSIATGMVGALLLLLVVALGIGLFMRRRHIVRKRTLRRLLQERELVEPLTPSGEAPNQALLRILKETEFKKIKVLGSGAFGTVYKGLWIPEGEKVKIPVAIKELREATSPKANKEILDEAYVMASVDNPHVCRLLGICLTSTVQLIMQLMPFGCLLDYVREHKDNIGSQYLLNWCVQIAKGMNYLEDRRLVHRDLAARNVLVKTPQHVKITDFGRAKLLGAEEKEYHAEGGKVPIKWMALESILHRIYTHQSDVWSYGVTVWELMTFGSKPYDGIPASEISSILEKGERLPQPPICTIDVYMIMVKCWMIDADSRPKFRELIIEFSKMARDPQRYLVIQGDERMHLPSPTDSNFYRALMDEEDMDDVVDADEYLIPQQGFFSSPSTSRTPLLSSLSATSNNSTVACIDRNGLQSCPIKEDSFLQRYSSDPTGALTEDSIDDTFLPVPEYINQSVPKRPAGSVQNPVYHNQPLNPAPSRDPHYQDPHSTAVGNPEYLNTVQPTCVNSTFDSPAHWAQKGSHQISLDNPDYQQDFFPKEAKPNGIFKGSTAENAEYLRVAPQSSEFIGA
EGFR-WT, sequence (P00533 668-1210): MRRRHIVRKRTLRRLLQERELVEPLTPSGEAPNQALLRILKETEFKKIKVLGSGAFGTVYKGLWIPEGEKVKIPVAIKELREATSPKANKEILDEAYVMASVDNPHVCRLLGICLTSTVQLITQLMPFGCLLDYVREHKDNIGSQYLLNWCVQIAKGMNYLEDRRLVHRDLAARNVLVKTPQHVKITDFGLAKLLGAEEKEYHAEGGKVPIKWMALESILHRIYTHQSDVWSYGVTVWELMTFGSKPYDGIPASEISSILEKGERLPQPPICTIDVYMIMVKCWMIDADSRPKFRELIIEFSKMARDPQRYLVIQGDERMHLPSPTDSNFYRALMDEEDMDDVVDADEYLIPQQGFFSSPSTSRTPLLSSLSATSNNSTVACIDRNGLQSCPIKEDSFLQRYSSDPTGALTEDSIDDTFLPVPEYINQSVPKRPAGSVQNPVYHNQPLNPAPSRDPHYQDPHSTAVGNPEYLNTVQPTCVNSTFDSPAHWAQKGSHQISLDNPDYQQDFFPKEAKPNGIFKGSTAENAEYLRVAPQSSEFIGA
T1 sequence (Q06187 whole entry): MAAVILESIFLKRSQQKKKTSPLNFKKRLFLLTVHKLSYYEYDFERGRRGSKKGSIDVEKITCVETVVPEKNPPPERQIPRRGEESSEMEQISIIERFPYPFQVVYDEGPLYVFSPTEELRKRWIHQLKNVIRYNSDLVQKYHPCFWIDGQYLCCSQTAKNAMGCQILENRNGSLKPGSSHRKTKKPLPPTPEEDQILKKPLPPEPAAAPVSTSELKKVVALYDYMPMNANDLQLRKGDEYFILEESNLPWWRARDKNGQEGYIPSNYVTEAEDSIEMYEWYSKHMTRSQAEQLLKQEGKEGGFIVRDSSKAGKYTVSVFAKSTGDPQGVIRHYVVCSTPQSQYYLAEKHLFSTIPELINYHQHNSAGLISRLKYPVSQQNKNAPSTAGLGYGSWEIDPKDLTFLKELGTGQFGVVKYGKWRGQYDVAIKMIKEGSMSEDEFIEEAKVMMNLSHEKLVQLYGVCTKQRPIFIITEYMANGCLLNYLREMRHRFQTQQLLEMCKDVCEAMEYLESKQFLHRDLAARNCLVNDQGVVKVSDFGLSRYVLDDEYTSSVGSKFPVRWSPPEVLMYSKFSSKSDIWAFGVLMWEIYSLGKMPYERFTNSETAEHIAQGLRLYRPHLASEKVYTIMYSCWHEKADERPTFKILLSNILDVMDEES
BMX, sequence (P51813 whole entry): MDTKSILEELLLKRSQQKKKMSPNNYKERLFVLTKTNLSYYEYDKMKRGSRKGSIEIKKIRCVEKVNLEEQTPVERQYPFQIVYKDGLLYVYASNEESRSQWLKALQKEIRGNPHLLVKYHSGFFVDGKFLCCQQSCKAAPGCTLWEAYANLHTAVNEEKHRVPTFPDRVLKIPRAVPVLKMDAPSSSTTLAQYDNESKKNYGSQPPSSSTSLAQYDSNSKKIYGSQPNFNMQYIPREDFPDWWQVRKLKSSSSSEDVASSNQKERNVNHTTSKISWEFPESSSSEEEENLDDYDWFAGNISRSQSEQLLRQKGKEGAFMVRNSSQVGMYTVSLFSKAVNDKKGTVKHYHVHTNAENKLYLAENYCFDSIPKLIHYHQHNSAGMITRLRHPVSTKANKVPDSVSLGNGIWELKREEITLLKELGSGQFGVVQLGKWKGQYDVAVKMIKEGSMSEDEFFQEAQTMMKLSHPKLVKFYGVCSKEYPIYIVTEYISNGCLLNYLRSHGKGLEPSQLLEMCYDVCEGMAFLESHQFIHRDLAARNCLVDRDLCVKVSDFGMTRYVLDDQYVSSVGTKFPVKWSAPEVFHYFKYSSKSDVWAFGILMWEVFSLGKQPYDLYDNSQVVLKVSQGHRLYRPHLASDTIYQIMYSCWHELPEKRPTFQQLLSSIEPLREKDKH

As for `C=CC(=O)Nc1cccc(Nc2nc(Nc3ccc(OC)nc3)ncc2F)c1` [Compound I-243, N-(3-(5-fluoro-2-(6-methoxypyridin-3-ylamino)pyrimidin-4-ylamino)phenyl)acrylamide], the “BTK Inhibition Type” value at BTK [1] is recorded as “irreversible”. Further, the IC50 was less than 10 nM at BTK [2], 10 to 100 nM at ITK, 10 to 100 nM on EGFR-WT and less than 10 nM on BTK [3].

For the compound `Cc1cnc(Nc2ccccc2)nc1Nc1cccc(NC(=O)/C=C/CN(C)C)c1` [Compound I-38, (E)-4-(dimethylamino)-N-(3-(5-methyl-2-(phenylamino)pyrimidin-4-ylamino)phenyl)but-2-enamide], the IC50 at BMX was less than 10 nM; at EGFR-T790M/L858R it was less than 10 nM; at BTK [2], less than 10 nM; on ITK, 10 to 100 nM; against EGFR-WT, 10 to 100 nM; on BTK [3] it was 10 to 100 nM. The “BTK Inhibition Type” value on BTK [1] was “reversible”.

For `CC(C)=CC(=O)c1cccc(Nc2nc(Nc3cccc(OCCN(C)C)c3)ncc2F)c1` [Compound I-207], the IC50 at BTK [2] was less than 10 nM; at ITK, less than 10 nM; against EGFR-WT, 100 to 1000 nM; at BTK [3] it was 100 to 1000 nM. Also, at BTK [4], the “covalent modification of BTK (mass spectrometry)” value (from here on “covalent modification of BTK”) is recorded as “completely modify”.

`C=CC(=O)N1CCC[C@@H](Nc2nc(Nc3cccc(OC)c3)ncc2F)C1` [Compound I-195, (R)-1-(3-(5-fluoro-2-(3-methoxyphenylamino)pyrimidin-4-ylamino)piperidin-1-yl)prop-2-en-1-one]: the IC50 on BTK [2] was less than 10 nM; at ITK it was 10 to 100 nM; at EGFR-WT it was 10 to 100 nM; on BTK [3] it was 10 to 100 nM. Besides, the “covalent modification of BTK” value at BTK [4] is on record as “completely modify”.

In the case of `C=CC(=O)Nc1cccc(Nc2nc(Nc3cccc(OC)c3)ncc2C(F)(F)F)c1` [Compound I-242, N-(3-(5-trifluoromethyl-2-(3-methoxyphenylamino)pyrimidin-4-ylamino)phenyl)acrylamide], the “BTK Inhibition Type” value on BTK [1] was “irreversible”. The IC50 is less than 10 nM at BTK [2], less than 10 nM on ITK, 10 to 100 nM against EGFR-WT and less than 10 nM on BTK [3].

As for `C=CC(=O)N1CCOc2ccc(Nc3ncc(F)c(Nc4cccc(Cl)c4)n3)cc21` [Compound I-149, 1-(6-(4-(3-chlorophenylamino)-5-fluoropyrimidin-2-ylamino)-2H-benzo[b][1,4]oxazin-4(3H)-yl)prop-2-en-1-one], the IC50 at BTK [2] was less than 10 nM; on ITK, 1000 to 10000 nM; on EGFR-WT (setting [5]), 1000 to 10000 nM; at BTK [3] it was 10 to 100 nM. The “covalent modification of BTK” value at BTK [4] is “completely modify”.

For the compound `C=CC(=O)Nc1cccc(Oc2nc(Nc3ccccc3)ncc2C)c1` [Compound I-248, N-(3-(5-methyl-2-(phenylamino)pyrimidin-4-yloxy)phenyl)acrylamide], the IC50 at BMX, on BTK [2], at ITK, at EGFR-WT (setting [5]) and at BTK [3] was less than 10 nM in each case. Moreover, the “BTK Inhibition Type” value on BTK [1] was “irreversible”.

As for `C=CC(=O)Nc1cccc(Nc2nc(Nc3ccccc3)ncc2F)c1` [Compound I-28, N-(3-(5-fluoro-2-(phenylamino)pyrimidin-4-ylamino)phenyl)acrylamide], the IC50 is less than 10 nM at BMX, less than 10 nM at BTK [2], 10 to 100 nM at ITK and 10 to 100 nM against EGFR-WT. Further, on BTK [1], the “BTK Inhibition Type” value was “irreversible”.

As to `C=CC(=O)Nc1cccc(Nc2nc(Nc3cccc(OC(F)(F)F)c3)ncc2F)c1` [Compound I-244, N-(3-(5-fluoro-2-(3-(trifluoromethoxy)phenylamino)pyrimidin-4-ylamino)phenyl)acrylamide], the IC50 was less than 10 nM on BMX; less than 10 nM at BTK [2]; 100 to 1000 nM on ITK; 100 to 1000 nM at EGFR-WT; 10 to 100 nM on BTK [3]. The “covalent modification of BTK” value at BTK [4] is “completely modify”.

As for `C=CC(=O)Nc1cccc(Oc2nc(Nc3ccccc3)ncc2F)c1` [Compound I-228, N-(3-(5-fluoro-2-(phenylamino)pyrimidin-4-yloxy)phenyl)acrylamide], at BTK [1], the “BTK Inhibition Type” value is on record as “irreversible”. Also, the IC50 on BTK [2] is less than 10 nM; at ITK, 10 to 100 nM; at EGFR-WT it was 10 to 100 nM; at BTK [3] it was less than 10 nM.

Consider `C=CC(=O)N(C)Cc1ccc(Nc2nc(Nc3ccccc3)ncc2C)cc1` [Compound I-219, N-methyl-N-(4-(5-methyl-2-(phenylamino)pyrimidin-4-ylamino)benzyl)acrylamide], for which the IC50 at BTK [2] is less than 10 nM; at ITK, 10 to 100 nM; on EGFR-WT, 10 to 100 nM; at BTK [3], 10 to 100 nM. Further, the “covalent modification of BTK” value at BTK [4] was “completely modify”.

With `C=C(C#N)C(O)c1ccc(Nc2nc(Nc3ccccc3)ncc2F)cc1` (stereo not shown) [Compound I-161, 2-((4-(5-fluoro-2-(phenylamino)pyrimidin-4-ylamino)phenyl)(hydroxy)methyl)acrylonitrile], the figures for the IC50 on BTK [2] and against EGFR-WT were less than 10 nM and 10 to 100 nM, respectively. Moreover, the “covalent modification of BTK” value on BTK [4] is listed as “completely modify”.

Take `C=CC(=O)Nc1cccc(Nc2nc(Nc3ccccc3)ncc2C(N)=O)c1` [Compound I-230, 4-(3-acrylamidophenylamino)-2-(phenylamino)pyrimidine-5-carboxamide]: the “BTK Inhibition Type” value on BTK [1] is “irreversible”. Further, the IC50 on BTK [2], on ITK and at BTK [3] was less than 10 nM each time.

Regarding `C=C(C#N)C(O)c1cccc(Nc2nc(Nc3ccc(OCCOC)cc3)ncc2F)c1` (stereo not shown) [Compound I-71, 2-((3-(5-fluoro-2-(4-(2-methoxyethoxy)phenylamino)pyrimidin-4-ylamino)phenyl)(hydroxy)methyl)acrylonitrile], the values for the IC50 on BTK [2] and against EGFR-WT were less than 10 nM and 10 to 100 nM, respectively. Also, on BTK [4], the “covalent modification of BTK” value is reported as “completely modify”.

Turning to `C=CC(=O)Nc1cccc(Nc2nc(Nc3ccc(F)cc3)ncc2F)c1` [Compound I-247, N-(3-(5-fluoro-2-(4-fluorophenylamino)pyrimidin-4-ylamino)phenyl)acrylamide], the IC50 at BMX was less than 10 nM; on BTK [2] it was less than 10 nM; at ITK, 10 to 100 nM; on EGFR-WT it was 10 to 100 nM; at BTK [3] it was less than 10 nM. Besides, the “BTK Inhibition Type” value on BTK [1] was “irreversible”.

As to `C=CC(=O)Nc1ccc(Nc2nc(Nc3ccccc3)ncc2C)cc1` [Compound I-39, N-(4-(5-methyl-2-(phenylamino)pyrimidin-4-ylamino)phenyl) acrylamide], the IC50 on BMX is less than 10 nM; at EGFR-T790M/L858R, 100 to 1000 nM; at BTK [2], less than 10 nM; at ITK, 100 to 1000 nM; on EGFR-WT (setting [5]), 1000 to 10000 nM; at BTK [3], 10 to 100 nM.

As to `C#CCOc1cccc(Nc2ncc(C)c(Nc3cccc(NC(=O)C=C)c3)n2)c1` [Compound I-35, N-(3-(5-methyl-2-(3-(prop-2-ynyloxy)phenylamino)pyrimidin-4-ylamino)phenyl) acrylamide], the IC50 is less than 10 nM on BMX; less than 10 nM on EGFR-T790M/L858R; less than 10 nM on BTK [2]; 10 to 100 nM on ITK; 10 to 100 nM against EGFR-WT; less than 10 nM at BTK [3]. The “BTK Inhibition Type” value on BTK [1] is on record as “irreversible”.
